How the values were obtained:
Assay type in all cases: cell-based
Sclerotinia homoeocarpa [1] = test: Radial growth of dollar spot fungus on amended Potato Dextrose Agar, dark vs light; details: for inhibition at 500 µM / inhibition at 1000 µM / inhibition at 2000 µM: Clarireedia homoeocarpa
E. Coli K-12 = test: E. Coli assay under LED lamps, colony count; details: Table 11; light; 5 mM Baypure CX
Description: Regarding the E. Coli assay tests in the above examples, the following procedure was used: • 1. E. Coli K-12 inoculated in 5 mL TSB and placed in a shaking incubator overnight. • 2. Dilute culture in 500 mL PBS (˜10̂8 CFU/mL) and placed in shaking incubator for 30 minutes at […]. • 3.15 mL samples created using 12 mL culture and a mixture of PBS buffer and sample compounds. • 4. Placed under LED lamps for 2 hours (40 W/m^2). • 5. Samples diluted to 10^−4 and culture controls diluted to 10^−5 for plating through series dilutions. • 6. 0.1 mL plated of each sample in triplicates on TSA base (10^−3 and 10^−4 for samples. 10^−4 and 10^−5 for controls). • 7. Incubated overnight at 37° C. • 8. Colonies counted next morning and recorded.

Sclerotinia homoeocarpa [2] = test: Radial growth of dollar spot fungus after treatment of plugs in PBS (24 well plates), dark vs light; details: rate 10 μM, growth between 48 and 72 hours
Description: In this example, control of dollar spot fungus (Sclerotinia homoeocarpa) with chlorins combined with a chelating agent was assessed. Treatments were prepared in Phosphate Buffered Saline (PBS) in 24 well plates (in duplicates for light vs. dark incubation) at desired concentrations. Then, a 5 mm diameter plug of a Sclerotinia homoeocarpa isolate (3 isolates total tested) was inoculated into the PBS and incubated at 21° C. in the dark for 2 hours. After 2 hours, one of the 24 well plates (with isolates in triplicate) is left in the dark and one 24 well plate is placed under illumination for 1 hour (all at 21° C.). Following illumination, fungal plugs are removed from PBS, blotted dry on sterile filter paper and transferred to non-amended Potato Dextrose Agar (PDA). Radial growth of the fungus is monitored daily until the growth of S. homoeocarpa reaches the edge of the Petri-dish. Illumination is provided by LED lights emitting about 1000 μmol/m^2/s photosynthetically active radiation (PAR). In this example, control of dollar spot fungus (Sclerotinia homoeocarpa) with Zinc Protoporphyrin IX (Zn-PPIX) combined with EDTA was assessed. Treatments were prepared in Phosphate Buffered Saline (PBS) in 24 well plates (in duplicates for light vs. dark incubation) at desired concentrations. Then, a 5 mm diameter plug of a Sclerotinia homoeocarpa isolate (3 isolates total tested) was inoculated into the PBS and incubated at 21° C. in the dark for 2 hours. After 2 hours, one of the 24 well plates (with isolates in triplicate) is left in the dark and one 24 well plate is placed under illumination for 1 hour (all at 21° C.). Following illumination, fungal plugs are removed from PBS, blotted dry on sterile filter paper and transferred to non-amended Potato Dextrose Agar (PDA). Radial growth of the fungus is monitored daily until the growth of S. homoeocarpa reaches the edge of the Petri-dish. Illumination is provided by LED lights emitting about 1000 μmol/m^2/s photosynthetically active radiation (PAR). In this example, control of dollar spot fungus (Sclerotinia homoeocarpa) with bacteriochlorin combined with EDTA was assessed. Treatments were prepared in Phosphate Buffered Saline (PBS) in 24 well plates (in duplicates for light vs. dark incubation) at desired concentrations. Then, a 5 mm diameter plug of a Sclerotinia homoeocarpa isolate (3 isolates total tested) was inoculated into the PBS and incubated at 21° C. in the dark for 2 hours. After 2 hours, one of the 24 well plates (with isolates in triplicate) is left in the dark and one 24 well plate is placed under illumination for 1 hour (all at 21° C.). Following illumination, fungal plugs are removed from PBS, blotted dry on sterile filter paper and transferred to non-amended Potato Dextrose Agar (PDA). Radial growth of the fungus is monitored daily until the growth of S. homoeocarpa reaches the edge of the Petri-dish. Illumination is provided by LED lights emitting about 1000 μmol/m^2/s photosynthetically active radiation (PAR). In this example, control of dollar spot fungus (Sclerotinia homoeocarpa) with Aluminum chlorin e6 combined with EDTA was assessed. Treatments were prepared in Phosphate Buffered Saline (PBS) in 24 well plates (in duplicates for light vs. dark incubation) at desired concentrations. Then, a 5 mm diameter plug of a Sclerotinia homoeocarpa isolate (3 isolates total tested) was inoculated into the PBS and incubated at 21° C. in the dark for 2 hours. After 2 hours, one of the 24 well plates (with isolates in triplicate) is left in the dark and one 24 well plate is placed under illumination for 1 hour (all at 21° C.). Following illumination, fungal plugs are removed from PBS, blotted dry on sterile filter paper and transferred to non-amended Potato Dextrose Agar (PDA). Radial growth of the fungus is monitored daily until the growth of S. homoeocarpa reaches the edge of the Petri-dish. Illumination is provided by LED lights emitting about 1000 μmol/m^2/s photosynthetically active radiation (PAR). […]

[3] = Table 17D, light, rate 31.62 μM
[4] = Table 17D, light, rate 316.2 μM
[5] = Table 16B, light, Chlorin Rate 5 μM
[6] = Table 16B, light, Chlorin Rate 10 μM
[7] = Table 16B, light, Chlorin Rate 31 μM

## O=C(O)CC(NC(CC(=O)O)C(=O)O)C(=O)O (stereo not shown) [Baypure CX (IDS), tetrasodium iminodisuccinate]
Sclerotinia homoeocarpa [1]; Table 14A, dark, rate 500 μM
  inhibition at 500 µM: 6.2%
  Mean Radial Growth: 12.7 mm
Sclerotinia homoeocarpa [1]; Table 14A, dark, rate 1000 μM
  inhibition at 1000 µM: 15.2%
  Mean Radial Growth: 11.4 mm
Sclerotinia homoeocarpa [1]; Table 14A, dark, rate 2000 μM
  inhibition at 2000 µM: 31.3%
  Mean Radial Growth: 9.3 mm
Sclerotinia homoeocarpa [1]; Table 14B, light, rate 500 μM
  inhibition at 500 µM: 8.6%
  Mean Radial Growth: 11.8 mm
Sclerotinia homoeocarpa [1]; Table 14B, light, rate 1000 μM
  inhibition at 1000 µM: 18%
  Mean Radial Growth: 10.6 mm
Sclerotinia homoeocarpa [1]; Table 14B, light, rate 2000 μM
  inhibition at 2000 µM: 30.9%
  Mean Radial Growth: 8.9 mm
E. Coli K-12
  % Inactivation: 67.8%
  CFU/mL: 2.09E+06 CFU/mL
  LogCFU/mL: 6.32 LogCFU/mL

## C=Cc1c(C)c2cc3nc(c(CC(=O)O)c4[n-]c(cc5nc(cc1[n-]2)C(C)=C5CC)c(C)c4C(=O)O)C(CCC(=O)O)C3C.[Co+2] (stereo not shown) [CoCe6, reference compound]
Sclerotinia homoeocarpa [1]; Table 17A, dark, rate 10 μM
  % Inhibition: 2.05%
  Mean Radial Growth: 13.3 mm
Sclerotinia homoeocarpa [1]; Table 17A, dark, rate 31 μM
  % Inhibition: 4.92%
  Mean Radial Growth: 12.9 mm
Sclerotinia homoeocarpa [1]; Table 17B, light, rate 10 μM
  % Inhibition: 3.0%
  Mean Radial Growth: 12.4 mm
Sclerotinia homoeocarpa [1]; Table 17B, light, rate 31 μM
  % Inhibition: 3.9%
  Mean Radial Growth: 12.3 mm

## C=Cc1c(C)c2cc3nc(c(CC(=O)[O-])c4[n-]c(cc5nc(cc1[n-]2)C(C)=C5CC)c(C)c4C(=O)[O-])C(CCC(=O)[O-])C3C.[Cu+2].[Na+].[Na+].[Na+] (stereo not shown) [Cu Chlorophyllin (CuChln), Cu chlorophyllin, reference compound]
Sclerotinia homoeocarpa [1]; Table 17C, dark, rate 31.62 μM
  % Inhibition: −3.13%
  Mean Radial Growth: 14.30 mm
Sclerotinia homoeocarpa [1]; Table 17C, dark, rate 100 μM
  % Inhibition: −3.37%
  Mean Radial Growth: 14.33 mm
Sclerotinia homoeocarpa [1]; Table 17C, dark, rate 316.2 μM
  % Inhibition: −5.29%
  Mean Radial Growth: 14.60 mm
Sclerotinia homoeocarpa [1]; Table 17C, dark, rate 1000 μM
  % Inhibition: −3.85%
  Mean Radial Growth: 14.40 mm
Sclerotinia homoeocarpa [1]; [3]
  % Inhibition: −18.93%
  Mean Radial Growth: 14.03 mm
Sclerotinia homoeocarpa [1]; Table 17D, light, rate 100 μM
  % Inhibition: −20.34%
  Mean Radial Growth: 14.20 mm
Sclerotinia homoeocarpa [1]; [4]
  % Inhibition: −26.55%
  Mean Radial Growth: 14.93 mm
Sclerotinia homoeocarpa [1]; Table 17D, light, rate 1000 μM
  % Inhibition: −28.81%
  Mean Radial Growth: 15.20 mm

## CC1=C(CCC(=O)O)c2cc3[nH]c(cc4nc(cc5[nH]c(cc1n2)c(C(C)O)c5C)C(C(C)O)=C4C)c(C)c3CCC(=O)O.Cl.Cl (stereo not shown) [Hematoporphyrin IX dichloride (HemIX), hematoporphyrin IX dichloride]
Sclerotinia homoeocarpa [2]; Table 22A, dark
  % Inhibition: −5.45%
  Mean Radial Growth: 15.06 mm
Sclerotinia homoeocarpa [2]; Table 22B, light
  % Inhibition: 38.87%
  Mean Radial Growth: 8.39 mm

## C=Cc1c(C)c2cc3nc(c(CC(=O)O)c4[n-]c(cc5nc(cc1[n-]2)C(C)=C5CC)c(C)c4C(=O)O)C(CCC(=O)O)C3C.[Pd+2] (stereo not shown) [PdCe6]
Sclerotinia homoeocarpa [1]; Table 16A, dark, rate 5 μM
  % Inhibition: 18.82%
  Mean Radial Growth: 11.5 mm
Sclerotinia homoeocarpa [1]; Table 16A, dark, rate 10 μM
  % Inhibition: 36.47%
  Mean Radial Growth: 9.0 mm
Sclerotinia homoeocarpa [1]; Table 16A, dark, rate 31 μM
  % Inhibition: 42.75%
  Mean Radial Growth: 8.1 mm
Sclerotinia homoeocarpa [1]; [5]
  % Inhibition: 49.3%
  Mean Radial Growth: 6.2 mm
Sclerotinia homoeocarpa [1]; [6]
  % Inhibition: 76.9%
  Mean Radial Growth: 2.8 mm
Sclerotinia homoeocarpa [1]; [7]
  % Inhibition: 100.0%
  Mean Radial Growth: 0 mm

Source: US20200253211A1, “PHOTODYNAMIC INHIBITION OF MICROBIAL PATHOGENS IN PLANTS” (SUNCOR ENERGY INC, priority 2017, published 2020)
